In publication PMC8185074, “Anchor extension: a structure-guided approach to design cyclic peptides targeting enzyme active sites” (Nature Communications, 2021):
Several values for one entry are separate records, joined by “and”; a condition that tells them apart may be missing. Equal values may be shown once. Peptide text beside a SMILES is read from it.

Legend:
Format in all cases: biochemical
HDAC6 = biological target: T1, HDAC6 (Homo sapiens, UniProt Q9UBN7); assay: HDAC6 inhibition, full IC50 measurement (Reaction Biology; fluorogenic p53 peptide RHKK(Ac)AMC)
T1 construct: purchased Reaction Biology Corporation (assay run by the CRO)
T1 sequence (Q9UBN7 1-1215): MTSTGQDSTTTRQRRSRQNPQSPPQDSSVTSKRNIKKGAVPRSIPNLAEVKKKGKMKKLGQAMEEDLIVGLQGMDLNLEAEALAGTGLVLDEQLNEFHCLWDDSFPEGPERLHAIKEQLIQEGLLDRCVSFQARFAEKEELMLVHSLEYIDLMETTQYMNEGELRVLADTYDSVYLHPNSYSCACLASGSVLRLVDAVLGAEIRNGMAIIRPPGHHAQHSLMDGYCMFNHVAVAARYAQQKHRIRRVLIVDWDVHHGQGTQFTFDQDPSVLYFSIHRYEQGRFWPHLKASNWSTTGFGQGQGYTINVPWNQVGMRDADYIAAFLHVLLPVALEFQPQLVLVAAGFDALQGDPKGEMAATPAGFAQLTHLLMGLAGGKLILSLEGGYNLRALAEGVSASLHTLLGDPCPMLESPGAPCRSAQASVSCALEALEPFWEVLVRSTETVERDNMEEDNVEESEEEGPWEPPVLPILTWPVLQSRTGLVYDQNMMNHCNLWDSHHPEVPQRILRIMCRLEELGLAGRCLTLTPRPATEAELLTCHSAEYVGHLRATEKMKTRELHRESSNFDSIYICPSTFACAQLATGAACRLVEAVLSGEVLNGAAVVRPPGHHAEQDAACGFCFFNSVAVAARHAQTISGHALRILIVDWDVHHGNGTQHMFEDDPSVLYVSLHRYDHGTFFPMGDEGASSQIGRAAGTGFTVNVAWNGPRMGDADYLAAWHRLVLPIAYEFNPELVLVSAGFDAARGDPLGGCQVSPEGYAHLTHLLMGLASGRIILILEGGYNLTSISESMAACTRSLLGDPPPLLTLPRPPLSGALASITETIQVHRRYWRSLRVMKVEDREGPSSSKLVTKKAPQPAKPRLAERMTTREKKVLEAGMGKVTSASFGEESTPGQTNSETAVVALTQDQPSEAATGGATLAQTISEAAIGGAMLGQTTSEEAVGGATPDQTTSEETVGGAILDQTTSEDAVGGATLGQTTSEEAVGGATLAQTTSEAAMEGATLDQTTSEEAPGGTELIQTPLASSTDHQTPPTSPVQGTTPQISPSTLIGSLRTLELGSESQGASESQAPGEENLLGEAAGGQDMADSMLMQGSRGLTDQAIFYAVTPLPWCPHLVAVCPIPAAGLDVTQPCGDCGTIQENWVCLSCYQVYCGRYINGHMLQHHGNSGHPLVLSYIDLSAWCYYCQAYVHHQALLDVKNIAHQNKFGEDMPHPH
Outline: (§1)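 Deacetylation of 50 μM RHKK(Ac)AMC is measured after 1 h at 30 °C in pH 8.0 Tris buffer (1% DMSO, 1 mg/ml BSA). Developer ends the reaction; the post-plateau 360/460 nm signal is fitted to IC50, averaging replicate measurements.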

HDAC8 = biological target: T2, HDAC8 (Homo sapiens, UniProt Q9BY41); assay: HDAC8 inhibition, full IC50 measurement (Reaction Biology; fluorogenic p53 peptide RHKK(Ac)AMC); conditions: t1/t2 replicates
T2 construct: purchased Reaction Biology Corporation (assay run by the CRO)
T2 sequence (Q9BY41 1-377): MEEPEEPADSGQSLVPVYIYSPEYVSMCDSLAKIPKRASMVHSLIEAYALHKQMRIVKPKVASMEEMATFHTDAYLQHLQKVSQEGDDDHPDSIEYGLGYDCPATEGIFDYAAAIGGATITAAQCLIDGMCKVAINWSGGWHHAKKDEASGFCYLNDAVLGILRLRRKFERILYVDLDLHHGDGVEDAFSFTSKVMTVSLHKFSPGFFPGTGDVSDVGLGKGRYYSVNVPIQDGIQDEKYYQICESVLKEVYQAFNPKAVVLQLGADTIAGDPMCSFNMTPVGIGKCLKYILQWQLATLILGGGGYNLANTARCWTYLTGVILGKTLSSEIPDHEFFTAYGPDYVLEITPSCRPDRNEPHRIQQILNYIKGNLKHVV
Outline: as §1

HDAC3 = biological target: T3, HDAC3 (Homo sapiens, UniProt O15379); assay: HDAC3 inhibition, full IC50 measurement (Reaction Biology; fluorogenic p53 peptide RHKK(Ac)AMC)
T3 construct: purchased Reaction Biology Corporation (assay run by the CRO)
Outline: as §1

T3 sequence (O15379 whole entry): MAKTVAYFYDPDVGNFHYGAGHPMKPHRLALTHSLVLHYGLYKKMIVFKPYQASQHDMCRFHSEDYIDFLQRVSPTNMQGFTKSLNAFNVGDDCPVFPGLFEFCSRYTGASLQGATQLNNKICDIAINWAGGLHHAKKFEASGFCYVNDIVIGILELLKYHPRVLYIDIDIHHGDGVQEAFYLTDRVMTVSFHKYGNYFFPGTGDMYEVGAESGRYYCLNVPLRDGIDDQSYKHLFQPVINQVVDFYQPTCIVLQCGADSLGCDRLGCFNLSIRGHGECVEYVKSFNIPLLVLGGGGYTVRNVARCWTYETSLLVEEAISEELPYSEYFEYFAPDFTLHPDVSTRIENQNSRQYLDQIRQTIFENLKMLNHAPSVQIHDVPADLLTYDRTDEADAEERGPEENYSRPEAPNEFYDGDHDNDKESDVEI
T3 sequence (Q9Y618 395-489 partner limits assumed): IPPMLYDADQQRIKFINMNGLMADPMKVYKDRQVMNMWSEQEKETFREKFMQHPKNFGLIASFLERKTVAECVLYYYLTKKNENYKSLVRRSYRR

CCCC[C@H]1NC(=O)[C@H](Cc2ccccc2)NC(=O)[C@H](CCCCCS)NC(=O)[C@@H](CCCNC(=N)N)NC(=O)[C@H](CC(=O)O)NC(=O)[C@@H](CO)NC(=O)[C@@H](C)NC(=O)[C@H](CCCCN)NC1=O [des4.3.1, SHA-Phe-dNle-Lys-dAla-dSer-Asp-dArg] (HELM PEPTIDE1{D.[dR].[O=C([C@H](CCCCCS)N[*:1])[*:2]].F.[CCCC[C@@H](N[*:1])C(=O)[*:2]].K.[dA].[dS]}$PEPTIDE1,PEPTIDE1,1:R1-8:R2$$$V2.0)
6-Selectivity: fold potency for HDAC6 over HDAC2 (HDAC6): 88.2 fold and 88 fold
HDAC6 activity raw data (signal) (HDAC6; Conc. 1.00E-05 M, t1): 5754
HDAC6 activity raw data (signal) (HDAC6; Conc. 1.00E-05 M, t2): 4634
HDAC6 activity raw data (signal) (HDAC6; Conc. 1.11E-06 M, t1): 10293
HDAC6 activity raw data (signal) (HDAC6; Conc. 1.11E-06 M, t2): 17466
HDAC6 activity raw data (signal) (HDAC6; Conc. 1.23E-07 M, t1): 97345
HDAC6 activity raw data (signal) (HDAC6; Conc. 1.23E-07 M, t2): 90888
HDAC6 activity raw data (signal) (HDAC6; Conc. 1.37E-08 M, t1): 307015
HDAC6 activity raw data (signal) (HDAC6; Conc. 1.37E-08 M, t2): 326589
HDAC6 activity raw data (signal) (HDAC6; Conc. 1.52E-09 M, t1): 510826
HDAC6 activity raw data (signal) (HDAC6; Conc. 1.52E-09 M, t2): 490649
HDAC6 activity raw data (signal) (HDAC6; Conc. 3.33E-06 M, t1): 6046
HDAC6 activity raw data (signal) (HDAC6; Conc. 3.33E-06 M, t2): 6920
HDAC6 activity raw data (signal) (HDAC6; Conc. 3.70E-07 M, t1): 48261
HDAC6 activity raw data (signal) (HDAC6; Conc. 3.70E-07 M, t2): 37034
HDAC6 activity raw data (signal) (HDAC6; Conc. 4.12E-08 M, t1): 179198
HDAC6 activity raw data (signal) (HDAC6; Conc. 4.12E-08 M, t2): 202702
HDAC6 activity raw data (signal) (HDAC6; Conc. 4.57E-09 M, t1): 433664
HDAC6 activity raw data (signal) (HDAC6; Conc. 4.57E-09 M, t2): 442171
HDAC6 activity raw data (signal) (HDAC6; Conc. 5.08E-10 M, t1): 531205
HDAC6 activity raw data (signal) (HDAC6; Conc. 5.08E-10 M, t2): 556727
IC50 (HDAC6; figure legends, Supp. Tables 1 and 8, read-out: HDAC6 IC50): 17.1 nM
HDAC8 activity raw data (signal) (HDAC8; peptide conc. 1.00E-05 M, listed as des4.3.1_t1): -1078311
HDAC8 activity raw data (signal) (HDAC8; peptide conc. 1.00E-05 M, listed as des4.3.1_t2): -204031
HDAC8 activity raw data (signal) (HDAC8; peptide conc. 1.11E-06 M, listed as des4.3.1_t1): 952629
HDAC8 activity raw data (signal) (HDAC8; peptide conc. 1.11E-06 M, listed as des4.3.1_t2): 3749954
HDAC8 activity raw data (signal) (HDAC8; peptide conc. 1.23E-07 M, listed as des4.3.1_t1): 24845816
HDAC8 activity raw data (signal) (HDAC8; peptide conc. 1.23E-07 M, listed as des4.3.1_t2): 32510062
HDAC8 activity raw data (signal) (HDAC8; peptide conc. 1.37E-08 M, listed as des4.3.1_t1): 71732810
HDAC8 activity raw data (signal) (HDAC8; peptide conc. 1.37E-08 M, listed as des4.3.1_t2): 73842492
HDAC8 activity raw data (signal) (HDAC8; peptide conc. 1.52E-09 M, listed as des4.3.1_t1): 70954745
HDAC8 activity raw data (signal) (HDAC8; peptide conc. 1.52E-09 M, listed as des4.3.1_t2): 80270259
HDAC8 activity raw data (signal) (HDAC8; peptide conc. 3.33E-06 M, listed as des4.3.1_t1): 928811
HDAC8 activity raw data (signal) (HDAC8; peptide conc. 3.33E-06 M, listed as des4.3.1_t2): 1732618
HDAC8 activity raw data (signal) (HDAC8; peptide conc. 3.70E-07 M, listed as des4.3.1_t1): 8410528
HDAC8 activity raw data (signal) (HDAC8; peptide conc. 3.70E-07 M, listed as des4.3.1_t2): 10886213
HDAC8 activity raw data (signal) (HDAC8; peptide conc. 4.12E-08 M, listed as des4.3.1_t1): 59468141
HDAC8 activity raw data (signal) (HDAC8; peptide conc. 4.12E-08 M, listed as des4.3.1_t2): 56999449
HDAC8 activity raw data (signal) (HDAC8; peptide conc. 4.57E-09 M, listed as des4.3.1_t1): 79326596
HDAC8 activity raw data (signal) (HDAC8; peptide conc. 4.57E-09 M, listed as des4.3.1_t2): 78170432
HDAC8 activity raw data (signal) (HDAC8; peptide conc. 5.08E-10 M, listed as des4.3.1_t1): 81559751
HDAC8 activity raw data (signal) (HDAC8; peptide conc. 5.08E-10 M, listed as des4.3.1_t2): 84202880
HDAC3 activity raw data (signal) (HDAC3; Conc. 1.00E-05 M, t1): 46115
HDAC3 activity raw data (signal) (HDAC3; Conc. 1.00E-05 M, t2): 35378
HDAC3 activity raw data (signal) (HDAC3; Conc. 1.11E-06 M, t1): 372696
HDAC3 activity raw data (signal) (HDAC3; Conc. 1.11E-06 M, t2): 416274
HDAC3 activity raw data (signal) (HDAC3; Conc. 1.23E-07 M, t1): 1045370
HDAC3 activity raw data (signal) (HDAC3; Conc. 1.23E-07 M, t2): 1070696
HDAC3 activity raw data (signal) (HDAC3; Conc. 1.37E-08 M, t1): 1250439
HDAC3 activity raw data (signal) (HDAC3; Conc. 1.37E-08 M, t2): 1300529
HDAC3 activity raw data (signal) (HDAC3; Conc. 1.52E-09 M, t1): 1121419
HDAC3 activity raw data (signal) (HDAC3; Conc. 1.52E-09 M, t2): 1274974
HDAC3 activity raw data (signal) (HDAC3; Conc. 3.33E-06 M, t1): 172249
HDAC3 activity raw data (signal) (HDAC3; Conc. 3.33E-06 M, t2): 152173
HDAC3 activity raw data (signal) (HDAC3; Conc. 3.70E-07 M, t1): 787295
HDAC3 activity raw data (signal) (HDAC3; Conc. 3.70E-07 M, t2): 779442
HDAC3 activity raw data (signal) (HDAC3; Conc. 4.12E-08 M, t1): 1318255
HDAC3 activity raw data (signal) (HDAC3; Conc. 4.12E-08 M, t2): 1249169
HDAC3 activity raw data (signal) (HDAC3; Conc. 4.57E-09 M, t1): 1278679
HDAC3 activity raw data (signal) (HDAC3; Conc. 4.57E-09 M, t2): 1136444
HDAC3 activity raw data (signal) (HDAC3; Conc. 5.08E-10 M, t1): 1099296
HDAC3 activity raw data (signal) (HDAC3; Conc. 5.08E-10 M, t2): 1140869
